This series in a line: recombinant barcode read abundance after kanamycin selection (control-corrected) (log10(CPM+1)); higher = more efficient recombination; sequences stand for … in AGTGCAGAGAAAATCGGCCAGTTTTCTCTGCCTGCAGTCCGCATGCCGT…AGATTTATGCAGCGGACTGCCTTTCTCCCAAAGTGATAAACCGGACAGTATCATGGACCGGTTTTCCCGGTAATCCGTATTTGCAAGGTTGGTTTCACT; site = the 11-nt target. The method, then: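 Pooled E. coli target-specificity screen for the IS621 bridge recombinase. Each library plasmid pairs an 11-nt target (CT core) with a bridge RNA whose target-binding loop (9-nt LTG + 4-nt RTG) is reprogrammed; the rest of the 177-nt WT IS621 bridge RNA scaffold is fixed. The plasmid is co-electroporated with a WT donor plasmid; recombinase is induced with 0.1 mM IPTG and recombinants are selected on kanamycin. Recombinant barcodes are sequenced, converted to CPM, averaged over two biological replicates and corrected by the unselected control CPM. Molecule = full bridge RNA written as DNA: LTG = specificity nt 1-9, RTG = reverse complement of specificity nt 8-11, in the WT scaffold.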
For “ACTGATGCTTGGGTTCTAACCTGTTGCCT (site ACTGATTCTAG)”, the “recombinant barcode read abundance (log10)” value came out at 0.0409.
Regarding “ACTGTATCTTGGGTTCTAACCTGTTGCCT (site ACTGTATCTAG)”, the “recombinant barcode read abundance (log10)” value was 1.13.
With “ACTGTATCTTGGGTTCTAACCTGTTGCCT (site CCTGTATCTAG)” the figure was 0.134; with “ACTGTATCTTGGGTTCTAACCTGTTGCCT (site GCTGTATCTAG)”, 0.0734.
In the case of “ACTGTATCTTGGGTTCTAACCTGTTGCCT (site TCTGTATCTAG)”, the “recombinant barcode read abundance (log10)” value is 0.231.
With “ACTGTCACTTGGGTTCTAACCTGTTGCCT (site ACTGTCACTAG)” the figure was 2.36; with “ACTGTCACTTGGGTTCTAACCTGTTGCCT (site ACTGTGACTAG)”, 0.0913; with “ACTGTGACTTGGGTTCTAACCTGTTGCCT (site ACTGTCACTAG)”, 0.317.
For “ACTGTGACTTGGGTTCTAACCTGTTGCCT (site ACTGTGACTAG)”, the “recombinant barcode read abundance (log10)” value is 2.71.
“ACTTAGACTTGGGTTCTAACCTGTTGCCC (site ACTTAGACTAG)”: the “recombinant barcode read abundance (log10)” value was 0.424.
With “ACTTAGACTTGGGTTCTAACCTGTTGCCC (site ACTTAGACTCG)” the figure was 0.333; with “ACTTAGACTTGGGTTCTAACCTGTTGCCC (site ACTTAGACTGG)”, 1.46.
For “ACTTAGACTTGGGTTCTAACCTGTTGCCC (site ACTTAGACTTG)”, the “recombinant barcode read abundance (log10)” value stood at 0.
Consider “ACTTAGTCTTGGGTTCTAACCTGTTGCTC (site ACTTAGTCTGA)”, for which the “recombinant barcode read abundance (log10)” value came to 1.04.
Regarding “ACTTAGTCTTGGGTTCTAACCTGTTGCTC (site TGCCCCGCTAG)”, the “recombinant barcode read abundance (log10)” value was found to be 0.0305.
As to “ACTTCAACTTGGGTTCTAACCTGTTGCCT (site ACATCAACTAG)”, the “recombinant barcode read abundance (log10)” value was 0.0253.
In the case of “ACTTCAACTTGGGTTCTAACCTGTTGCCT (site ACCTCAACTAG)”, the “recombinant barcode read abundance (log10)” value was found to be 0.026.
As for “ACTTCAACTTGGGTTCTAACCTGTTGCCT (site ACGTCAACTAG)”, the “recombinant barcode read abundance (log10)” value was found to be 0.161.
Regarding “ACTTCAACTTGGGTTCTAACCTGTTGCCT (site ACTTCAACTAG)”, the “recombinant barcode read abundance (log10)” value worked out at 0.101.
Consider “ACTTCACCTTGGGTTCTAACCTGTTGCCT (site ACTTCACCTAG)”, for which the “recombinant barcode read abundance (log10)” value came to 1.02.
In the case of “ACTTCACCTTGGGTTCTAACCTGTTGCCT (site ACTTCTGCTAG)”, the “recombinant barcode read abundance (log10)” value is 0.0689.
In the case of “ACTTCTACTTGGGTTCTAACCTGTTGCCG (site ACTTCTACTCG)”, the “recombinant barcode read abundance (log10)” value was 0.195.
As for “ACTTCTACTTGGGTTCTAACCTGTTGCCG (site ACTTCTTCTAG)”, the “recombinant barcode read abundance (log10)” value worked out at 0.204.
“ACTTGACCTTGGGTTCTAACCTGTTGCGG (site ACTTGACCTCC)”: the “recombinant barcode read abundance (log10)” value was 2.31.
For “ACTTGACCTTGGGTTCTAACCTGTTGCGG (site AGTTAACCTCC)”, the “recombinant barcode read abundance (log10)” value stood at 0.
Take “ACTTGCCCTTGGGTTCTAACCTGTTGCCT (site AATTGCCCTAG)”: the “recombinant barcode read abundance (log10)” value was determined as 0.0465.
Turning to “ACTTGCCCTTGGGTTCTAACCTGTTGCCT (site ACTTGCCCTAG)”, the “recombinant barcode read abundance (log10)” value turned out to be 0.925.
With “ACTTGCCCTTGGGTTCTAACCTGTTGCCT (site AGTTGCCCTAG)”, the “recombinant barcode read abundance (log10)” value worked out at 0.00674.
With “ACTTGCCCTTGGGTTCTAACCTGTTGCCT (site ATTTGCCCTAG)” the figure was 0.57; with “ACTTTGTCTTGGGTTCTAACCTGTTGCCT (site ACATTGTCTAG)”, 0.0289; with “ACTTTGTCTTGGGTTCTAACCTGTTGCCT (site ACCTTGTCTAG)”, 0.085.
With “ACTTTGTCTTGGGTTCTAACCTGTTGCCT (site ACGTTGTCTAG)”, the “recombinant barcode read abundance (log10)” value stood at 0.0449.
Take “ACTTTGTCTTGGGTTCTAACCTGTTGCCT (site ACTTTGTCTAG)”: the “recombinant barcode read abundance (log10)” value came out at 0.596.
“AGAAACACTTGGGTTCTAACCTGTTGCCT (site AGAAACACTAG)”: the “recombinant barcode read abundance (log10)” value was found to be 1.34.
Regarding “AGAAACACTTGGGTTCTAACCTGTTGCCT (site AGGAACACTAG)”, the “recombinant barcode read abundance (log10)” value is 0.0546.
With “AGAAATTCTTGGGTTCTAACCTGTTGCCT (site AGAAATTCTAG)” the figure was 0.52; with “AGAAATTCTTGGGTTCTAACCTGTTGCCT (site AGCAATTCTAG)”, 0.0252; with “AGAAATTCTTGGGTTCTAACCTGTTGCCT (site AGGAATTCTAG)”, 0.111.
With “AGAAATTCTTGGGTTCTAACCTGTTGCCT (site AGTAATTCTAG)” the figure was 0.0316; with “AGAAGTCCTTGGGTTCTAACCTGTTGCTG (site AGAAGTCCTCA)”, 1.11.
As to “AGAAGTCCTTGGGTTCTAACCTGTTGCTG (site AGAAGTCCTCC)”, the “recombinant barcode read abundance (log10)” value stood at 0.0845.
As for “AGAAGTCCTTGGGTTCTAACCTGTTGCTG (site AGAAGTCCTCG)”, the “recombinant barcode read abundance (log10)” value is 0.0922.
As for “AGAAGTCCTTGGGTTCTAACCTGTTGCTG (site AGAAGTCCTCT)”, the “recombinant barcode read abundance (log10)” value is 0.773.
Turning to “AGAATCCCTTGGGTTCTAACCTGTTGCTA (site AGAATCCCTTA)”, the “recombinant barcode read abundance (log10)” value was 1.74.
Consider “AGAATCCCTTGGGTTCTAACCTGTTGCTA (site GCAATCCCTTA)”, for which the “recombinant barcode read abundance (log10)” value is 0.106.
With “AGACGTCCTTGGGTTCTAACCTGTTGCGT (site AGACGTCCTAC)”, the “recombinant barcode read abundance (log10)” value came to 2.51.
In the case of “AGACGTCCTTGGGTTCTAACCTGTTGCGT (site ATACGTCCTAT)”, the “recombinant barcode read abundance (log10)” value was 0.233.
Consider “AGACTAACTTGGGTTCTAACCTGTTGCTT (site AGACTAACTAA)”, for which the “recombinant barcode read abundance (log10)” value was determined as 0.715.
Take “AGACTAACTTGGGTTCTAACCTGTTGCTT (site GGACTAACTAG)”: the “recombinant barcode read abundance (log10)” value was found to be 0.0387.
With “AGACTCTCTTGGGTTCTAACCTGTTGCCT (site AGACTCTCTAG)”, the “recombinant barcode read abundance (log10)” value is 2.01.
For the sequence “AGACTCTCTTGGGTTCTAACCTGTTGCCT (site ATACTCTCTAG)”, the “recombinant barcode read abundance (log10)” value turned out to be 0.377.
“AGACTTCCTTGGGTTCTAACCTGTTGCTT (site AGACATCCTAA)”: the “recombinant barcode read abundance (log10)” value stood at 0.158.
Turning to “AGACTTCCTTGGGTTCTAACCTGTTGCTT (site AGACCTCCTAA)”, the “recombinant barcode read abundance (log10)” value came to 0.121.
Consider “AGACTTCCTTGGGTTCTAACCTGTTGCTT (site AGACGTCCTAA)”, for which the “recombinant barcode read abundance (log10)” value came to 0.0179.
Regarding “AGACTTCCTTGGGTTCTAACCTGTTGCTT (site AGACTTCCTAA)”, the “recombinant barcode read abundance (log10)” value worked out at 0.811.
“AGAGAGTCTTGGGTTCTAACCTGTTGCCT (site AGAAAGTCTAC)”: the “recombinant barcode read abundance (log10)” value was 0.0903.
For “AGAGAGTCTTGGGTTCTAACCTGTTGCCT (site AGAGAGTCTAG)”, the “recombinant barcode read abundance (log10)” value was 2.53.
Regarding “AGAGGGTCTTGGGTTCTAACCTGTTGCCT (site AAAGGGTCTAG)”, the “recombinant barcode read abundance (log10)” value came out at 0.21.
Take “AGAGGGTCTTGGGTTCTAACCTGTTGCCT (site ACAGGGTCTAG)”: the “recombinant barcode read abundance (log10)” value came out at 0.731.
“AGAGGGTCTTGGGTTCTAACCTGTTGCCT (site AGAGGGTCTAG)”: the “recombinant barcode read abundance (log10)” value amounted to 2.79.
Take “AGAGGGTCTTGGGTTCTAACCTGTTGCCT (site ATAGGGTCTAG)”: the “recombinant barcode read abundance (log10)” value is 0.765.
In the case of “AGAGGTCCTTGGGTTCTAACCTGTTGCCT (site AGAGGTCCTAG)”, the “recombinant barcode read abundance (log10)” value came out at 2.04.
As to “AGAGGTCCTTGGGTTCTAACCTGTTGCCT (site TGAGGGCCTAG)”, the “recombinant barcode read abundance (log10)” value is 0.169.
As for “AGAGTGACTTGGGTTCTAACCTGTTGCCT (site AGAGAGACTAG)”, the “recombinant barcode read abundance (log10)” value stood at 1.
With “AGAGTGACTTGGGTTCTAACCTGTTGCCT (site AGAGCGACTAG)” the figure was 0.0794; with “AGAGTGACTTGGGTTCTAACCTGTTGCCT (site AGAGGGACTAG)”, 0.0448; with “AGAGTGACTTGGGTTCTAACCTGTTGCCT (site AGAGTGACTAG)”, 1.69.
Regarding “AGATTCACTTGGGTTCTAACCTGTTGCCT (site AGATTCACTAG)”, the “recombinant barcode read abundance (log10)” value amounted to 0.994.
With “AGATTCACTTGGGTTCTAACCTGTTGCCT (site AGATTGACTTG)”, the “recombinant barcode read abundance (log10)” value came out at 0.0824.
As to “AGATTCCCTTGGGTTCTAACCTGTTGCCG (site AGATTCCCTCG)”, the “recombinant barcode read abundance (log10)” value was 1.67.
With “AGATTCCCTTGGGTTCTAACCTGTTGCCG (site AGATTCGCTCG)” the figure was 0.0429; with “AGATTTCCTTGGGTTCTAACCTGTTGCAT (site AGATTTCCTAT)”, 0.173; with “AGATTTCCTTGGGTTCTAACCTGTTGCAT (site CATCCGACTGA)”, 0.0339.

Source of the values: the supplement of paper PMC11208160.
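Note: IS621 recombinase and bridge RNA in Escherichia coli cells.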
